Assay results: patent EP1075186B1, “METHOD OF HSV PROPHYLAXIS” (The Children's Hospital Research Foundation, priority 1998, dated 1999)

Tested on: human foreskin fibroblast (HFF) cell monolayers
Test: Toxicity effects controls (sham-inoculated compound treated HFF monolayers)
Format: cell-based
Conditions: Experiment 4, Table 10
Text: Sham-incolulated, non-treated HFF cell monolayers were included along with the drug-treated monolayers as "cell monolayer controls". • 1. HSV-1 inoculated, non-compound treated HFF monolayers were included as "positive controls"; and • 2.
In the tables, the symbols have the meaning indicated: + = toxic; - = no toxicity; +/- = mild toxicity; ND = not done; T = toxicity effects interfered with CPE rating; CPE = cytopathic effect.

[1] = 0.001 mg/ml, 24 hrs post incubation
[2] = 0.001 mg/ml, 48 hrs post incubation
[3] = 0.01 mg/ml, 24 hrs post incubation
[4] = 0.01 mg/ml, 48 hrs post incubation
[5] = 0.1 mg/ml, 24 hrs post incubation
[6] = 0.1 mg/ml, 48 hrs post incubation
[7] = 0.5 mg/ml, 24 hrs post incubation
[8] = 0.5 mg/ml, 48 hrs post incubation
[9] = 1 mg/ml, 24 hrs post incubation
[10] = 1 mg/ml, 48 hrs post incubation
[11] = 5 mg/ml, 24 hrs post incubation
[12] = 5 mg/ml, 48 hrs post incubation

| SMILES | TOXICITY EFFECTS CONTROL [1] | TOXICITY EFFECTS CONTROL [2] | TOXICITY EFFECTS CONTROL [3] | TOXICITY EFFECTS CONTROL [4] | TOXICITY EFFECTS CONTROL [5] | TOXICITY EFFECTS CONTROL [6] | TOXICITY EFFECTS CONTROL [7] | TOXICITY EFFECTS CONTROL [8] | TOXICITY EFFECTS CONTROL [9] | TOXICITY EFFECTS CONTROL [10] | TOXICITY EFFECTS CONTROL [11] | TOXICITY EFFECTS CONTROL [12] |
| --- | --- | --- | --- | --- | --- | --- | --- | --- | --- | --- | --- | --- |
| CC1=CC(C)=[N+]2CC[N+]3=C(C)C=C(C)[O][Co-3]23([n+]2c[nH]c(C)c2)([n+]2c[nH]c(C)c2)[O]1 [Compound 97] | - | - | - | - | +/- | +/- | - | - | +/- | +/- | +/- | + |
| CC1=[N+]2CC[N+]3=C(C)C=C(c4ccccc4)[O][Co-3]23([n+]2cc[nH]c2C)([n+]2cc[nH]c2C)[O]C(c2ccccc2)=C1 [Compound 102] | - | - | - | - | - | - | - | - | +/- | +/- | +/- | + |
